Measured values: US7166597B2, “Fused pyrazole derivatives being protein kinase inhibitors” (Glaxo Group Limited, priority 2000, dated 2007)
Where two headings read alike, the source gives them in different places.

Tests used:
p38 kinase = target: T1, p38 kinase (Homo sapiens, UniProt Q16539); assay: p38 Kinase Assay; format: biochemical
T1 construct: GST (N); made in house; host or cells: E. coli

[1] = tested on: TNF release from human peripheral blood mononuclear cells (PBMNC); assay: Cell Based Assay for Cytokines Production in PBMNC (TNF release after LPS); settings: PBMC, read-out: TNF/PBMNC (inhibition of TNF release from human PBMNC following stimulation with LPS, IC50)
Procedure: Cell Based Assay for Cytokines Production in PBMNC
Human peripheral blood mononuclear cells were isolated from heparinized blood by LSM (Organon Teknika) from volunteer donors. Purified human peripheral blood mononuclear cells were then suspended at a concentration of 2×10^6 cells/ml in RPMI 1640 medium supplemented with 10% heat-inactivated FBS and 1% antibiotics. Aliquots of 100 μl (2×10^5 cells) were added to 96-well microliter plates. Test compounds at […] dose ranges (final-DMSO concentration in culture medium was 0.1%) were then added to the cells for 10–15 minutes before the addition of lipopolysaccharide (1 ng/ml). After incubation at 37° C. in a 5% CO2 incubator for 18–20 h, cell free supernatants were collected by centrifugation at 800 g. The supernatant was then assayed for the amount of TNFα and IL-1β by using Quantikine immunoassay kits developed by R&D Systems (Minneapolis, Minn.).

[2] = tested on: serum TNFα elevation in mice treated with lipopolysaccharide (LPS); assay: Murine LPS-Stimulated Serum TNF Inhibition; format: in vivo; settings: Mus musculus, 1.5 h, dose 30 mpk, read-out: % inh. (dose): % inhibition of murine TNF production in mice following an LPS challenge
Procedure: Murine LPS—Stimulated Serum TNF Inhibition Protocol
The potency of compounds of the invention as inhibitors of serum TNFα elevation in mice treated with lipopolysaccharide (LPS) was determined as follows; a) for subcutaneous (s.c.) administration, test compound was dissolved in DMSO and added to a mixture of 0.9% sodium chloride solution and 30% Trappsol HPB-20 (Cyclodextrin Technology Development Inc., Gainesville, Fla. USA) for a final DMSO concentration of 1%. The dosing solution was sonicated briefly and 0.2 mL was injected subcutaneously 10 min prior to LPS injection; b) for per oral (p.o.) administration, test compounds were formulated in 0.2 mL of PBS and 0.1% Tween 80 and given orally via gavage 10 min prior to LPS administration.
C3/hen female mice were injected intraperitoneally with 200 μg/kg LPS (Escherichia coil, Serotype 0111:B4, Sigma Chemical Co, St. Louis, Mo.) in PBS and sacrificed 90 min later by CO2 asphyxiation. Blood was immediately taken from the caudal vena cava and plasma prepared and frozen at −80° C. Plasma concentrations of TNF were measured by ELISA (Genzyme Co., Cambridge Mass.).

[3] = Cell Based Efficacy (MTT Assay), cytotoxicity toward HFF; settings: human, HFF cells (human foreskin fibroblasts)
Procedure: Cell Based Efficacy (MTT Assay)
The potency of compounds of the invention are tested for their ability to inhibit cell proliferation and cell viability. The metabolic conversion of 3-(4,5-dimethylthiazol-2-yl)-2,5-diphenyltetrazolium bromide (MTT, Sigma #M2128) to a reduced form was a commonly used measure of cellular viability. Following was the procedure:
Cells are maintained in 75 cm^2 tissue culture flasks until ready for use. The cells are grown and plated for the assay in Dulbecco's modified Eagle's media containing 10% fetal bovine serum. For example, the following cell lines can be used: a) human foreskin fibroblasts (HFF), b) HT29 (human colon carcinoma cell line), c) MDA-MB468 (human breast carcinoma cell line), d) RKO (human colon adenocarcinoma cell line), e) SW620 (human colon carcinoma cell line), f) A549 (human lung carcinoma cell line), and g) MIA PACA (human pancreatic carcinoma cell line). Cells are maintained at 37° C. in 10% CO2, 90% humidified air. Cells are plated in 96-well tissue culture plates at the densities listed below (Table 6). 100 μL of cell suspension was added to each well of the 96-well plate except the top row of the plate which contains no cells and serves as a reference for the spectrophotometer.
Cells are incubated overnight in Dulbecco's modified Eagle's media containing 10% fetal bovine serum at 37° C. in 10% CO2, 90% humidified air prior to dosing. Cells are dosed in 10 sequential 3-fold dilutions starting at 30 μM depending upon the solubility of the compound. Compounds with solubilities of less than 30 μM are dosed at the highest soluble concentration. Stock solutions of compounds are made in 100% dimethyl sulfoxide (DMSO). Stock solutions are diluted in Dulbecco's modified Eagle's media containing 100 ug/mL gentamicin and 0.3 to 0.6% DMSO at the twice the highest concentration to be placed on the cells. If compounds have been dissolved in DMSO the final concentration of DMSO on the cells was kept below 0.3%. 3-fold serial dilutions are performed on each compound to prepare 10 concentrations of the compound for dosing. 100 μL of diluted compound was added to the 100 μL of media currently on the dish. For each concentration of compound, 2–4 replicate wells are prepared.
Cells are returned to incubator and allowed to proliferate in the presence of compound for 72 h before addition of MTT. MTT was prepared in phosphate buffered saline (Irvine Scientific #9240) at a concentration of 2 mg/mL. 50 μL per well of MTT solution was added to the 200 μL of media to yield a final concentration of 0.4 mg/mL and plates are returned to the incubator for 4 h. After 4 h incubation the media, compound and MTT mixture was aspirated from the plates and 100 μL of 100% DMSO was added to each well in addition to 25 uL of Sorenson's Buffer (0.1M glycine, 0.1M NaCl, pH 10.5). Quantitation of metabolic reduction of MTT in each plate was performed by reading optical density at 570 nm wavelength on a Molecular Devices UV max microplate reader. Growth inhibition curves and 50% inhibitory concentrations are determined using Microsoft Excel.

T1 sequence (Q16539 whole entry): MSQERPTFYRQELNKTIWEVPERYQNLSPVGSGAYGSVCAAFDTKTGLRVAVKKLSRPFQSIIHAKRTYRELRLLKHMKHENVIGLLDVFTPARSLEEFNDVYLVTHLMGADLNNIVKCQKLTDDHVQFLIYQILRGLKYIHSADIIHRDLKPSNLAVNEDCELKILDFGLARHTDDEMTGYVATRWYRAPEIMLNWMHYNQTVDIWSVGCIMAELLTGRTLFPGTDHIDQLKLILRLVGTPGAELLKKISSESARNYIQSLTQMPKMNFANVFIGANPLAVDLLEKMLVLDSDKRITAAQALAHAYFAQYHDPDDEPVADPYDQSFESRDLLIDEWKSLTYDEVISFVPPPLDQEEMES

Row | Compound | IC50 (p38 kinase; Table 7, compounds wherein Z is CH, read-out: P38 kinase (inhibition of p38 kinase, IC50)) [nM] | IC50 ([1]; Table 7, LPS stimulation) [nM] | inhibition in vivo at 30 mg/kg ([2]; Table 7, LPS challenge) [%] | IC50 at 72 h ([3]; Table 7, HFF cell line) [µM] | IC50 (p38 kinase; Table 8, compounds wherein Z is N, read-out: p38 kinase (inhibition of p38 kinase, IC50)) [nM] | IC50 ([1]; Table 8, LPS stimulation) [nM] | inhibition in vivo at 30 mg/kg ([2]; Table 8, LPS challenge) [%] | IC50 at 72 h ([3]; Table 8, HFF cell line) [µM]
1 | OCCCNc1cc(-c2c(-c3ccc(F)cc3)nn3ccccc23)ccn1 [Example 30, 3-(4-[2-(4-Fluorophenyl)pyrazolo[1,5-a]pyridin-3-yl]-2-pyridinylamino)-1-propanol] | < 500 | < 500 | 45 | > 50 |  |  |  | 
2 | Fc1ccc(-c2nn3ccccc3c2-c2ccncn2)cc1 [Example 56, 2-(4-Fluorophenyl)-3-(4-pyrimidinyl)-pyrazolo[1,5-a]pyridine] |  |  |  |  | 500 to 5000 | 500 to 5000 | 67 | > 50
